Test results from BindingDB's records for doi:10.1021/jm00104a010 (University of Illinois At Chicago, 1992).

biological target: Reverse transcriptase (Human immunodeficiency virus 2); test: Inhibition of purified HIV-2 reverse transcriptase

| IC50 [µM] | SMILES |
| --- | --- |
| 478 | O=C(O)c1cc(NS(=O)(=O)c2ccc(-c3ccc(S(=O)(=O)Nc4cc(C(=O)O)c(O)c(S(=O)(=O)O)c4)cc3)cc2)cc(S(=O)(=O)O)c1O |
| 170 | O=C(O)CCCCCCCCC(=O)Nc1cc(S(=O)(=O)O)cc2cc(S(=O)(=O)O)cc(O)c12 |
| 452 | Nc1c(S(=O)(=O)O)cc2cc(S(=O)(=O)O)cc(O)c2c1O |
| 122 | O=C(CCCCCCCCC(=O)Nc1cc(S(=O)(=O)O)cc2cc(S(=O)(=O)O)cc(O)c12)Nc1cc(S(=O)(=O)O)cc2cc(S(=O)(=O)O)cc(O)c12 |
